# Assay results taken from patent publication US20190137505A1 (THE ARIZONA BOARD OF REGENTS ON BEHALF OF THE UNIVERSITY OF …, priority 2015, published 2019).
# What was measured:
# [1] = target: T1, plasminogen (Pg) (Homo sapiens, UniProt P00747); assay: Chromogenic activity assay: activation of unmodified and MG-modified Pg to plasmin by tPA, uPA or STK on a fibrin matrix; type: biochemical; details: p<0.05
# T1 construct: Glu-Pg, uPA, tPA, fibrinogen, and chromogenic substrate for Pn were purchased from Molecular Innovations (Novi, Mich.); purchased Molecular Innovations (Novi, Mich.)
# T1 sequence (P00747 20-810 limits assumed): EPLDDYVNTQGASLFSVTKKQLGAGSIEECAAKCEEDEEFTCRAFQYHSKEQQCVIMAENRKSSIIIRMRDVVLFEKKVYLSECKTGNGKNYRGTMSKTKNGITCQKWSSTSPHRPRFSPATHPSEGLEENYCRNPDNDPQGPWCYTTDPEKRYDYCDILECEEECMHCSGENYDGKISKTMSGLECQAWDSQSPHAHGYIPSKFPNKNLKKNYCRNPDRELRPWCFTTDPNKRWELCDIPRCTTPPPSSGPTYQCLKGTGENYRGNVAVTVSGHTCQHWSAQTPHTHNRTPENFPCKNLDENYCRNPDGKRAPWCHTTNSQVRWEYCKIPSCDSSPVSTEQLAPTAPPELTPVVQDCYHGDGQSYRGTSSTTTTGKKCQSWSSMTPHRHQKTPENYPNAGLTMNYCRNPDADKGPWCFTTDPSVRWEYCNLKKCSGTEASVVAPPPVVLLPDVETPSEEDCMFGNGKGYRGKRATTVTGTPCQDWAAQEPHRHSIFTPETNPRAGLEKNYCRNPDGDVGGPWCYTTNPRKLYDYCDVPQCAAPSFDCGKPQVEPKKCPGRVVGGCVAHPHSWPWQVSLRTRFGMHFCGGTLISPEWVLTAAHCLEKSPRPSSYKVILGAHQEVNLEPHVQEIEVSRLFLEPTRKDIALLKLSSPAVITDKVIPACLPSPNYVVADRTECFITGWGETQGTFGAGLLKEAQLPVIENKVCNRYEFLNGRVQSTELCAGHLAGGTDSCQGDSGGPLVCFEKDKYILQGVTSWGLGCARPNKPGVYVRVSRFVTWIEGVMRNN
# Description: 10 μg Pg was incubated with MG (50-500 μM) in tris-buffered saline (TBS) for 24 hours at 37° C. Following modification, sample volumes were increased to 150 μL and placed in 5 kDa spin filters to reduce volume and remove excess MG from solution.
# 96-well plate was incubated with 200 μL of 260 nM fibrinogen in TBS for 40 min at room temperature. Fibrinogen solution was removed and replaced with 250 μL TBS containing 3% bovine serum albumin and 0.01% TWEEN for 90 minutes at 37° C. Blocking solution was removed and the plate was washed twice with solution of 50 mM Tris-HCl, 110 mM NaCl and 0.01% TWEEN (pH 7.4). 5 units/mL of thrombin and 5 mM CaCl2 in 50 mM Tris-HCl, 110 mM NaCl (pH 7.4) was added to the wells for 45 min. A high salt wash (1 M NaCl, 50 mM Tris-HCl, pH 7.4) followed by a TBS-TWEEN wash completed plate prep.
# Into each well 198 μL of 10 mM HEPES/150 mM NaCl (pH 7.4) was added. Into each well, 2 μL of 25 mM chromogenic substrate for Pn (D-VLK-pNA) was added. To appropriate wells were added 2 μL of 20 μM Pg, either a 24-hour unmodified control or 24 hour 50-500 μM MG modified. Activators were added to respective wells to test activation of unmodified and modified Pg. 2 μL of each activator enzyme was utilized in appropriate wells for tPA (1.2 μM), uPA (5 μM) and STK (500 nM). Following enzyme addition, plate was immediately read on a SpectraMax M2 plate reader (Molecular Devices) every minute for 90 minutes at an absorbance of 405 nm.
# Pg (10 μg) was incubated with MG (50-500 μM) in 10 mM HEPES/150 mM NaCl (pH 7.4) for 24 hours at 37° C. Following modification, sample volumes were increased to 150 μL and placed in 5 kDa spin filters to reduce volume and remove excess MG from solution. A 96-well plate was incubated with 200 μL of 260 nM fibrinogen in TBS for 40 min. at room temperature. Fibrinogen solution was removed and replaced with 250 μL TBS containing 3% bovine serum albumin and 0.01% TWEEN for 90 minutes at 37° C. Blocking solution was removed and the plate was washed twice with solution of 50 mM Tris-HCl, 110 mM NaCl and 0.01% TWEEN (pH 7.4). Thrombin (5 units/mL) and 5 mM CaCl2 in 50 mM Tris-HCl, 110 mM NaCl (pH 7.4) was added to the wells for 45 min. A high salt wash (1M NaCl, 50 mM Tris-HCl, pH 7.4) followed by a TBS-TWEEN wash completed plate prep. Into each well, 198 μL of 10 mM HEPES/150 mM NaCl (pH 7.4) and 2 μL of 25 mM chromogenic substrate for Pn (D-VLK-pNA) were added. To appropriate wells were added 2 μL of 20 μM Pg, either a 24-hour unmodified control or 24 hour 50-500 μM MG modified. Activators were added to respective wells to test activation of unmodified and modified Pg. Each activator enzyme (2 μL) was utilized in appropriate wells for tPA (12 nM), uPA (50 nM) and STK (5 nM) (Ajjan et al., 2013, Zhang et al., 2012). Following enzyme addition, plate was immediately read on a SpectraMax M2 plate reader (Molecular Devices) every minute for 90 minutes at an absorbance of 405 nm.
# [2] = target: T2, HSA drug site I (Homo sapiens, UniProt P02768); assay: Prodan displacement assay; type: binding; details: prodan-HSA 75 μM; 30 min; fluorescence 465 nm emission
# T2 construct: purchased Sigma-Aldrich A3782
# T2 sequence (P02768 25-609): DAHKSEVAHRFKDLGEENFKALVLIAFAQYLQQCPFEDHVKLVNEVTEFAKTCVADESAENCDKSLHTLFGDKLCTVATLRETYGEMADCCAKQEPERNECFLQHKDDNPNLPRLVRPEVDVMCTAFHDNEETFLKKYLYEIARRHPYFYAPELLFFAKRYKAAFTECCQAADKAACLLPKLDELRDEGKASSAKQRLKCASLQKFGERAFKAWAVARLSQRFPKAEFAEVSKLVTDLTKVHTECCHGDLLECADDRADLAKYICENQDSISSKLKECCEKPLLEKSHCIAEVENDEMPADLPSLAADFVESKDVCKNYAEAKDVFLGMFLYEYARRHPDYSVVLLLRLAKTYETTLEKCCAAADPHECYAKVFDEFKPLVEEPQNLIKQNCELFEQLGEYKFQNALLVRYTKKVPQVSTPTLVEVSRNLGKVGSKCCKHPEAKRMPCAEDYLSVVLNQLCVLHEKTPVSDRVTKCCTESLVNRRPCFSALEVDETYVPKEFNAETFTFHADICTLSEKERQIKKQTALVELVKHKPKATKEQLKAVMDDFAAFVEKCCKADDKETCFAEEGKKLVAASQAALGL
# Description: A solution of human serum albumin (HSA) (20 ml at 10 mg/ml) in 1×PBS pH 7.4 was prepared. A slurry (10 ml) of Lipidex-1000 in methanol was buffer exchanged into 1×PBS and the buffer decanted from the aqueous slurry. The HSA solution was added to the slurry and the mixture was rotated at room temperature for 30 min. The Lipidex slurry was completely removed from HSA by plunging through a 0.22 μm filter using a 60 ml syringe. Prodan (25 mg) was dissolved in of 40% ethanol, 60% methanol (5 ml at a final concentration is 5 mg/ml). A portion (10 ml) of delipidated HSA (10 mg/ml) was incubated with 666.7 μl of the prodan solution (1:10 molar ratio HSA:prodan), and this mixture was rotated at room temperature for 30 minutes. The HSA-prodan mixture was placed on dry ice and acetone precipitated by adding 40 ml of acetone at −20° C., which was mixed and centrifuged at 3000×g for 10 min to pellet the precipitated HSA-prodan. Two additional washes of cold acetone were used to remove any free prodan. The HSA pellet was brought to 10 ml with PBS and mixed and resuspended.
# A 2-fold serial dilution of MG in 1×PBS pH 7.4 was prepared starting from a stock solution of 10 mM. […] An aliquot (300 μl) of each reaction was read using a Gemini XPS Fluorescence Microplate Reader (Molecular Devices) in endpoint mode with 360 nm excitation, 420 nm filter cut-off, and 465 nm emission.
structure (smiles),measurement,setting,value
"CC(=O)C=O [MG, Methylglyoxal]",time at which significant delay in activation of MG-modified Pg is detectable,"[1]; STK 5 nM, Pg modified 24 hours with 100 μM MG",16 min
same,time at which significant delay in activation of MG-modified Pg is detectable,"[1]; STK 5 nM, Pg modified 24 hours with 500 μM MG",12 min
same,time at which significant delay in activation of MG-modified Pg is detectable,"[1]; tPA 12 nM, Pg modified 24 hours with 100 μM MG",30 min
same,time at which significant delay in activation of MG-modified Pg is detectable,"[1]; tPA 12 nM, Pg modified 24 hours with 500 μM MG",28 min
same,time at which significant delay in activation of MG-modified Pg is detectable,"[1]; uPA 50 nM, Pg modified 24 hours with 500 μM MG",37 min
same,MG concentrations that displace prodan from prodan-HSA complex,[2],above 300 μM
